# Measurements published in the supplement of paper PMC10307832.
# Experiments:
# Experiment in all cases: relative viability (nuclei count vs DMSO), 5 days (fraction); higher = more cells survive
# BI-D1870 + Linsitinib = compound: CC(C)CCN1c2nc(Nc3cc(F)c(O)c(F)c3)ncc2N(C)C(=O)C1C [BI-D1870] + C[C@]1(O)C[C@@H](c2nc(-c3ccc4ccc(-c5ccccc5)nc4c3)c3c(N)nccn32)C1 [Linsitinib] (partner 1 µM)
# How it was run: (§1)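 Lung cancer cell lines were seeded in 1536-well plates and dosed by pin tool the next day, with either a single drug or a fixed anchor-drug dose combined with five library-drug doses (not always all listed) spaced in √10 steps. Five days later, one step fixed the cells and stained their nuclei (final 0.05% Triton X-100, 1% formaldehyde, 1 ug/ml Hoechst), and nuclei were counted on 4× images. Relative viability is the nuclei count in treated wells divided by the count in vehicle wells, and each value is the median of duplicate plates.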
# Zebularine + Luminespib = compound: O=c1ncccn1[C@@H]1O[C@H](CO)[C@@H](O)[C@H]1O [Zebularine] + CCNC(=O)c1noc(-c2cc(C(C)C)c(O)cc2O)c1-c1ccc(CN2CCOCC2)cc1 [Luminespib] (partner 0.01 µM)
# How it was run: as §1
# BI-D1870 + OSI-027 = compound: CC(C)CCN1c2nc(Nc3cc(F)c(O)c(F)c3)ncc2N(C)C(=O)C1C [BI-D1870] + COc1cccc2cc(-c3nc([C@H]4CC[C@H](C(=O)O)CC4)n4ncnc(N)c34)[nH]c12 [OSI-027] (partner 0.5 µM)
# How it was run: as §1
# BI-D1870 + Phenformin = compound: CC(C)CCN1c2nc(Nc3cc(F)c(O)c(F)c3)ncc2N(C)C(=O)C1C [BI-D1870] + N=C(N)NC(=N)NCCc1ccccc1 [Phenformin] (partner 250 µM)
# How it was run: as §1
Cell Line,relative viability (BI-D1870 + Linsitinib; first compound 0.04 µM),relative viability (BI-D1870 + Linsitinib; first compound 0.1265 µM),relative viability (BI-D1870 + Linsitinib; first compound 0.4 µM),relative viability (BI-D1870 + Linsitinib; first compound 1.265 µM),relative viability (BI-D1870 + Linsitinib; first compound 4 µM),relative viability (Zebularine + Luminespib; first compound 1 µM),relative viability (Zebularine + Luminespib; first compound 3.162 µM),relative viability (Zebularine + Luminespib; first compound 10 µM),relative viability (Zebularine + Luminespib; first compound 31.62 µM),relative viability (Zebularine + Luminespib; first compound 100 µM),relative viability (BI-D1870 + OSI-027; first compound 0.04 µM),relative viability (BI-D1870 + OSI-027; first compound 0.1265 µM),relative viability (BI-D1870 + OSI-027; first compound 0.4 µM),relative viability (BI-D1870 + OSI-027; first compound 1.265 µM),relative viability (BI-D1870 + OSI-027; first compound 4 µM),relative viability (BI-D1870 + Phenformin; first compound 0.04 µM),relative viability (BI-D1870 + Phenformin; first compound 0.1265 µM),relative viability (BI-D1870 + Phenformin; first compound 0.4 µM),relative viability (BI-D1870 + Phenformin; first compound 1.265 µM),relative viability (BI-D1870 + Phenformin; first compound 4 µM)
BEN,0.956,0.859,0.914,1.01,0.961,0.448,0.172,0.235,0.262,0.178,0.296,0.289,0.283,0.311,0.283,0.272,0.29,0.273,0.314,0.243
NCI-H1666,0.921,0.814,0.865,0.843,0.872,1.01,0.932,0.966,1.01,0.751,0.943,0.808,0.849,0.89,0.807,0.572,0.521,0.592,0.58,0.537
LC-2-ad,0.874,0.821,0.778,0.722,0.522,1.02,1.01,0.699,0.73,0.541,0.93,0.861,0.824,0.867,0.802,0.586,0.657,0.502,0.636,0.54
SK-LU-1,1.33,0.993,1.09,1.05,0.597,0.231,0.187,0.22,0.229,0.183,0.386,0.305,0.26,0.299,0.199,0.505,0.525,0.514,0.63,0.358
COR-L 105,1.11,0.813,0.926,0.856,0.666,0.844,0.839,0.508,1.06,0.652,0.769,0.682,0.619,0.808,0.754,0.562,0.396,0.422,0.489,0.5
NCI-H1975,1.01,0.849,0.874,0.94,0.636,0.249,0.196,0.241,0.199,0.14,0.755,0.58,0.54,0.559,0.457,0.4,0.37,0.422,0.426,0.313
NCI-H1993,0.812,0.739,0.726,0.703,0.797,0.908,0.687,0.749,0.815,0.847,0.481,0.511,0.53,0.537,0.54,0.482,0.403,0.487,0.468,0.572
RERF-LC-KJ,0.919,0.882,0.842,0.814,0.812,1.29,1.17,0.827,1.54,1.53,0.595,0.478,0.558,0.628,0.389,0.422,0.396,0.407,0.435,0.285
NCI-H23,0.911,0.385,0.586,0.61,0.685,0.217,0.221,0.21,0.211,0.199,0.782,0.525,0.463,0.547,0.344,0.827,0.758,0.768,0.759,0.736
EMC-BAC-2,0.864,0.748,0.792,0.802,0.799,1.27,1.1,0.842,1.38,1.35,0.46,0.37,0.351,0.422,0.334,0.578,0.519,0.53,0.549,0.499
NCI-H2405,1.07,0.839,0.901,1.06,0.909,0.705,0.779,0.651,0.797,0.498,0.675,0.634,0.643,0.688,0.642,0.436,0.415,0.386,0.438,0.398
NCI-H358,0.694,0.705,0.812,0.625,0.381,0.355,0.462,0.251,0.269,0.184,0.825,0.65,0.687,0.728,0.344,0.405,0.289,0.343,0.326,0.218
NCI-H1944,1.34,1.18,1.07,1.38,1.08,0.837,0.707,0.718,0.711,0.533,0.514,0.376,0.366,0.475,0.426,0.218,0.185,0.184,0.237,0.205
EPLC-272H,1.22,1.15,1.34,1.22,1.14,0.247,0.238,0.237,0.406,0.154,0.263,0.218,0.272,0.278,0.204,0.36,0.262,0.289,0.28,0.2
NCI-H1915,1.1,1.12,1.1,1.12,1.05,0.887,0.818,–,0.772,0.322,0.665,0.516,0.591,0.476,0.411,0.376,0.358,0.378,0.305,0.291
NCI-H596,1.13,1.07,1.05,1.17,1.07,0.897,0.914,0.662,1.13,0.715,0.797,0.704,0.95,0.572,0.5,0.809,0.683,0.695,0.74,0.855
NCI-H322M,1.05,0.904,0.826,0.879,0.883,0.905,0.992,0.707,0.703,0.662,0.579,0.511,0.38,0.444,0.494,0.841,0.764,0.668,0.626,0.701
NCI-H2228,0.78,0.568,0.953,0.529,0.388,0.198,0.147,0.175,0.226,0.153,0.659,0.533,0.654,0.515,0.257,0.4,0.417,0.317,0.348,0.288
NCI-H647,1.14,1.2,1.26,1.22,0.871,0.242,0.173,0.141,0.0957,0.0958,0.657,0.519,0.664,0.855,0.53,0.659,0.466,0.62,0.513,0.324
SK-MES-1,1.06,1.05,1.02,0.902,0.705,0.656,0.755,0.458,0.347,0.251,0.699,0.559,0.567,0.55,0.336,0.732,0.593,0.613,0.648,0.363
NCI-H2085,0.93,0.81,0.896,0.885,0.68,0.625,0.436,0.339,0.423,0.277,0.745,0.6,0.674,0.602,0.337,0.806,0.658,0.676,0.69,0.52
SW 1573,0.768,0.756,0.89,0.771,0.63,0.181,0.34,0.173,0.41,0.285,0.598,0.436,0.513,0.477,0.329,0.487,0.212,0.308,0.394,0.144
NCI-H727,0.323,0.328,0.252,0.371,0.261,0.382,–,–,1.01,0.272,0.559,0.518,0.646,1.01,0.517,0.53,0.614,0.587,0.712,0.462
NCI-H441,0.871,0.429,0.481,0.493,0.518,0.301,0.266,0.298,0.244,0.225,0.577,0.557,0.601,0.637,0.496,1.02,0.832,0.74,1.17,0.872
LOU-NH91,0.98,0.908,0.996,0.986,0.769,0.332,0.33,0.479,0.298,0.3,0.797,0.701,0.7,0.75,0.57,0.744,0.63,0.703,0.817,0.558
NCI-H3122,1.06,0.925,0.988,0.974,1.02,0.11,0.0829,–,0.111,0.0803,1.08,0.876,0.932,1.07,0.619,0.362,0.354,0.383,0.39,0.346
NCI-H460,0.974,0.629,0.655,0.434,0.0477,0.0314,0.0246,0.0322,0.0331,0.0289,0.825,0.504,0.43,0.442,0.185,0.541,0.48,0.503,0.447,0.0984
